Tests used:
Type in all cases: in vivo
Indian mallow = test: weed control effect in post-emergence stage (Table 1); design: key: Level 10: completely dead; Level 9: above 95% growth control rate; Level 8: above 90% growth control rate; Level 7: above 80% growth control rate; Level 6: above 70% growth control rate; Level 5: above 60% growth control rate; Level 4: above 50% growth control rate; Level 3: above 20% growth control rate; Level 2: 5%-20% growth control rate; Level 1: below 5% growth control rate; settings: post-emergence spray at 4-5 leaf stage, 250 g/ha active ingredient with 450 kg/ha water, rated after 3 weeks in greenhouse
Summary of the method: (§1)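 Greenhouse pot test; foliar spray at 4-5 leaf stage; acetone + Tween 80 + water formulation; 3 wk post-treatment fresh-weight control rate.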

bidens bipinnata = test: as above; design: key: Level 10: completely dead; Level 9: above 95% growth control rate; Level 8: above 90% growth control rate; Level 7: above 80% growth control rate; Level 6: above 70% growth control rate; Level 5: above 60% growth control rate; Level 4: above 50% growth control rate; Level 3: above 20% growth control rate; Level 2: 5%-20% growth control rate; Level 1: below 5% growth control rate; settings: post-emergence spray at 4-5 leaf stage, 250 g/ha active ingredient with 450 kg/ha water, rated after 3 weeks in greenhouse
Summary of the method: as §1

crab grass = test: as above; design: key: Level 10: completely dead; Level 9: above 95% growth control rate; Level 8: above 90% growth control rate; Level 7: above 80% growth control rate; Level 6: above 70% growth control rate; Level 5: above 60% growth control rate; Level 4: above 50% growth control rate; Level 3: above 20% growth control rate; Level 2: 5%-20% growth control rate; Level 1: below 5% growth control rate; settings: post-emergence spray at 4-5 leaf stage, 250 g/ha active ingredient with 450 kg/ha water, rated after 3 weeks in greenhouse
Summary of the method: as §1

echinochloa = test: as above; design: key: Level 10: completely dead; Level 9: above 95% growth control rate; Level 8: above 90% growth control rate; Level 7: above 80% growth control rate; Level 6: above 70% growth control rate; Level 5: above 60% growth control rate; Level 4: above 50% growth control rate; Level 3: above 20% growth control rate; Level 2: 5%-20% growth control rate; Level 1: below 5% growth control rate; settings: post-emergence spray at 4-5 leaf stage, 250 g/ha active ingredient with 450 kg/ha water, rated after 3 weeks in greenhouse
Summary of the method: as §1

foxtail = test: as above; design: key: Level 10: completely dead; Level 9: above 95% growth control rate; Level 8: above 90% growth control rate; Level 7: above 80% growth control rate; Level 6: above 70% growth control rate; Level 5: above 60% growth control rate; Level 4: above 50% growth control rate; Level 3: above 20% growth control rate; Level 2: 5%-20% growth control rate; Level 1: below 5% growth control rate; settings: post-emergence spray at 4-5 leaf stage, 250 g/ha active ingredient with 450 kg/ha water, rated after 3 weeks in greenhouse
Summary of the method: as §1

rorippa indica = test: as above; design: key: Level 10: completely dead; Level 9: above 95% growth control rate; Level 8: above 90% growth control rate; Level 7: above 80% growth control rate; Level 6: above 70% growth control rate; Level 5: above 60% growth control rate; Level 4: above 50% growth control rate; Level 3: above 20% growth control rate; Level 2: 5%-20% growth control rate; Level 1: below 5% growth control rate; settings: post-emergence spray at 4-5 leaf stage, 250 g/ha active ingredient with 450 kg/ha water, rated after 3 weeks in greenhouse
Summary of the method: as §1

corn = test: post-emergence stage experiment, crop (Table 1); settings: post-emergence spray at 4-5 leaf stage, 250 g/ha active ingredient with 450 kg/ha water, rated after 3 weeks in greenhouse
Summary of the method: as §1

wheat [1] = test: post-emergence stage experiment, crop (Table 1); settings: post-emergence spray at 4-5 leaf stage, 250 g/ha active ingredient with 450 kg/ha water, rated after 3 weeks in greenhouse
Summary of the method: as §1

rice = test: post-emergence stage experiment, crop (Table 1); design: key: Level 10: completely dead; Level 9: above 95% growth control rate; Level 8: above 90% growth control rate; Level 7: above 80% growth control rate; Level 6: above 70% growth control rate; Level 5: above 60% growth control rate; Level 4: above 50% growth control rate; Level 3: above 20% growth control rate; Level 2: 5%-20% growth control rate; Level 1: below 5% growth control rate; settings: post-emergence spray at 4-5 leaf stage, 250 g/ha active ingredient with 450 kg/ha water, rated after 3 weeks in greenhouse
Summary of the method: as §1

wheat [2] = test: wheat field test, crop selectivity, greenhouse spray at 4 leaf stage; settings: 250 g/ha of the active substance; 4 weeks after treatment
Summary of the method: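 After sowing in pots under 0.5-2 cm soil, plants grow to the 4 leaf stage and receive a spray of compound formulated in acetone, methyl oleate emulsion and water. Four weeks later in the greenhouse, the fresh weight control rate gives the growth control rate.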

chickweed = test: wheat field resistant broadleaf weed control, greenhouse spray at 4 leaf stage; design: key: Level 10: completely dead; Level 9: above 95% growth control rate; Level 8: above 90% growth control rate; Level 7: above 80% growth control rate; Level 6: above 70% growth control rate; Level 5: above 60% growth control rate; Level 4: above 50% growth control rate; Level 3: above 20% growth control rate; Level 2: 5%-20% growth control rate; Level 1: below 5% growth control rate; settings: 250 g/ha of the active substance; 4 weeks after treatment; ALS inhibitor resistant
Summary of the method: (§2)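 Greenhouse post-emergence test. Weeds were treated at the 4 leaf stage, 2-3 weeks after sowing, and cultured for 4 weeks before fresh weight control rate was determined.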

corn gromwell = test: as above; design: key: Level 10: completely dead; Level 9: above 95% growth control rate; Level 8: above 90% growth control rate; Level 7: above 80% growth control rate; Level 6: above 70% growth control rate; Level 5: above 60% growth control rate; Level 4: above 50% growth control rate; Level 3: above 20% growth control rate; Level 2: 5%-20% growth control rate; Level 1: below 5% growth control rate; settings: 250 g/ha of the active substance; 4 weeks after treatment; ALS inhibitor resistant
Summary of the method: as §2

flixweed = test: as above; design: key: Level 10: completely dead; Level 9: above 95% growth control rate; Level 8: above 90% growth control rate; Level 7: above 80% growth control rate; Level 6: above 70% growth control rate; Level 5: above 60% growth control rate; Level 4: above 50% growth control rate; Level 3: above 20% growth control rate; Level 2: 5%-20% growth control rate; Level 1: below 5% growth control rate; settings: 250 g/ha of the active substance; 4 weeks after treatment; ALS inhibitor resistant
Summary of the method: as §2

shepherd's purse = test: as above; design: key: Level 10: completely dead; Level 9: above 95% growth control rate; Level 8: above 90% growth control rate; Level 7: above 80% growth control rate; Level 6: above 70% growth control rate; Level 5: above 60% growth control rate; Level 4: above 50% growth control rate; Level 3: above 20% growth control rate; Level 2: 5%-20% growth control rate; Level 1: below 5% growth control rate; settings: 250 g/ha of the active substance; 4 weeks after treatment; ALS inhibitor resistant
Summary of the method: as §2

CCOc1c(C(=O)Oc2c(C(=O)c3ccc(C(F)(F)F)c(-n4cc(C)cn4)c3Cl)c(C)nn2C)cnn1C [Compound 086]
weed control effect, Indian mallow (level) (Indian mallow): 10 | weed control effect, Bidens bipinnata (level) (bidens bipinnata): 6 (Level 6: above 70% growth control rate) | weed control effect, Crab grass (level) (crab grass): 4 (Level 4: above 50% growth control rate) | weed control effect, Echinochloa (level) (echinochloa): 5 (Level 5: above 60% growth control rate) | weed control effect, Green foxtail (level) (foxtail): 2 (Level 2: 5%-20% growth control rate) | weed control effect, Rorippa indica (level) (rorippa indica): 10 | effect on crop, Corn (level) (corn): 0 | effect on crop, Wheat (level) (wheat [1]): 0 | effect on crop, Rice (level) (rice): 2 (Level 2: 5%-20% growth control rate) | Wheat (activity level, crop damage) (wheat [2]): 0 | chickweed weed controlling effect (activity level) (chickweed): 10 | corn gromwell weed controlling effect (activity level) (corn gromwell): 10 | flixweed weed controlling effect (activity level) (flixweed): 10 | shepherd's purse weed controlling effect (activity level) (shepherd's purse): 10

CCn1ncc(C(=O)c2ccc(C(F)(F)F)c(N3CCCC3=O)c2Cl)c1O [Compound 096]
weed control effect, Indian mallow (level) (Indian mallow): 10 | weed control effect, Bidens bipinnata (level) (bidens bipinnata): 10 | weed control effect, Crab grass (level) (crab grass): 5 (Level 5: above 60% growth control rate) | weed control effect, Echinochloa (level) (echinochloa): 10 | weed control effect, Green foxtail (level) (foxtail): 10 | weed control effect, Rorippa indica (level) (rorippa indica): 10 | effect on crop, Corn (level) (corn): 0 | effect on crop, Wheat (level) (wheat [1]): 1 (Level 1: below 5% growth control rate) | effect on crop, Rice (level) (rice): 9 (Level 9: above 95% growth control rate) | Wheat (activity level, crop damage) (wheat [2]): 1 (Level 1: below 5% growth control rate) | chickweed weed controlling effect (activity level) (chickweed): 10 | corn gromwell weed controlling effect (activity level) (corn gromwell): 10 | flixweed weed controlling effect (activity level) (flixweed): 10 | shepherd's purse weed controlling effect (activity level) (shepherd's purse): 10

CCc1nn(C)c(OC(=O)c2cn(C)nc2C)c1C(=O)c1ccc(C(F)(F)F)c(N2CCCCC2=O)c1Cl [Compound 111]
weed control effect, Indian mallow (level) (Indian mallow): 10 | weed control effect, Bidens bipinnata (level) (bidens bipinnata): 4 (Level 4: above 50% growth control rate) | weed control effect, Crab grass (level) (crab grass): 3 (Level 3: above 20% growth control rate) | weed control effect, Echinochloa (level) (echinochloa): 10 | weed control effect, Green foxtail (level) (foxtail): 2 (Level 2: 5%-20% growth control rate) | weed control effect, Rorippa indica (level) (rorippa indica): 10 | effect on crop, Corn (level) (corn): 1 (Level 1: below 5% growth control rate) | effect on crop, Wheat (level) (wheat [1]): 1 (Level 1: below 5% growth control rate) | effect on crop, Rice (level) (rice): 10 | Wheat (activity level, crop damage) (wheat [2]): 1 (Level 1: below 5% growth control rate) | chickweed weed controlling effect (activity level) (chickweed): 10 | corn gromwell weed controlling effect (activity level) (corn gromwell): 10 | flixweed weed controlling effect (activity level) (flixweed): 10 | shepherd's purse weed controlling effect (activity level) (shepherd's purse): 10

CCn1nc(C)c(C(=O)c2ccc(C(F)(F)F)c(N3CCCCCC3=O)c2Cl)c1OC(=O)c1cn(C)nc1C [Compound 119]
weed control effect, Indian mallow (level) (Indian mallow): 3 (Level 3: above 20% growth control rate) | weed control effect, Bidens bipinnata (level) (bidens bipinnata): 5 (Level 5: above 60% growth control rate) | weed control effect, Crab grass (level) (crab grass): 5 (Level 5: above 60% growth control rate) | weed control effect, Echinochloa (level) (echinochloa): 10 | weed control effect, Green foxtail (level) (foxtail): 9 (Level 9: above 95% growth control rate) | weed control effect, Rorippa indica (level) (rorippa indica): 10 | effect on crop, Corn (level) (corn): 3 (Level 3: above 20% growth control rate) | effect on crop, Wheat (level) (wheat [1]): 1 (Level 1: below 5% growth control rate) | effect on crop, Rice (level) (rice): 6 (Level 6: above 70% growth control rate) | Wheat (activity level, crop damage) (wheat [2]): 1 (Level 1: below 5% growth control rate) | chickweed weed controlling effect (activity level) (chickweed): 10 | corn gromwell weed controlling effect (activity level) (corn gromwell): 10 | flixweed weed controlling effect (activity level) (flixweed): 10 | shepherd's purse weed controlling effect (activity level) (shepherd's purse): 10

— patent US11076594B2, “Pyrazolone compound or salt thereof, preparation method therefor, herbicide composition and use thereof” (QINGDAO KINGAGROOT CHEMICAL COMPOUNDS CO., LTD., priority 2015, dated 2021)
